Results taken from patent US8574563B2 (Bristol-Myers Squibb Company, priority 2006, dated 2013).

system: HCV 1b-377-neo replicon cells; test: HCV replicon assay, HCV 1b-377-neo replicon cells (1b FRET); format: cell-based, Hepatitis C virus genotype 1b; details: HCV 1b-377-neo replicon cells; HCV 1b genotype
In short: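 Compounds tested in HCV genotype 1b-377-neo replicon cells with a FRET read-out. Cells resistant to a reference NS5A inhibitor through a Y2065H NS5A mutation were run alongside wild-type cells.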

Question: `COC(=O)NC(C)(C)C(=O)N1CCC[C@H]1c1ncc(-c2ccc(-c3ccc(-c4cnc([C@@H]5CCCN5C(=O)C(C)(C)NC(=O)OC)[nH]4)cc3)cc2)[nH]1` [Example M7, methyl (2-((2S)-2-(5-(4′-(2-((2S)-1-(2-((methoxycarbonyl)amino)-2-methylpropanoyl)-2-pyrrolidinyl)-1H-imidazol-5-yl)-4-biphenylyl)-1H-imidazol-2-yl)-1-pyrrolidinyl)-1,1-dimethyl-2-oxoethyl)carbamate] was tested. Which “EC50 range against HCV 1b (Table 2, Range)” value did it give?
Answer: The value was “>A”.

same assay, conditions: HCV 1b-377-neo replicon cells; HCV 1b genotype; read-out: EC50 range against HCV 1b (Table 2, Range)

Question: With `COC(=O)N[C@@H](C(=O)N1CCC[C@H]1c1ncc(-c2ccc(-c3ccc(-c4cnc([C@@H]5CCCN5C(=O)Cc5cc(C)no5)[nH]4)cc3)cc2)[nH]1)c1ccccc1` [Example 84-74, methyl ((1R)-2-((2)S-2-(5-(4′-(2-((2S)-1-((3-methyl-5-isoxazolyl)acetyl)-2-pyrrolidinyl)-1H-imidazol-5-yl)-4-biphenylyl)-1H-imidazol-2-yl)-1-pyrrolidinyl)-2-oxo-1-phenylethyl)carbamate] as the molecule, how does the EC50 read?
Answer: The EC50 was 0.001 to 0.999 nM.

same assay, conditions: Hepatitis C virus, HCV 1b-377-neo replicon cells; HCV 1b genotype; read-out: EC50 range against HCV 1b (Table 2, Range)

Question: For `CN(C)c1ccc(C(=O)N2CCC[C@H]2c2ncc(-c3ccc(-c4ccc(-c5cnc([C@@H]6CCCN6C(=O)[C@@H](c6ccccc6)N6CCCCC6)[nH]5)cc4)cc3)[nH]2)cc1` [Example 107-4, N,N-dimethyl-4-(((2S)-2-(5-(4′-(2-((2S)-1-((2R)-2-phenyl-2-(1-piperidinyl)acetyl)-2-pyrrolidinyl)-1H-imidazol-5-yl)-4-biphenylyl)-1H-imidazol-2-yl)-1-pyrrolidinyl)carbonyl)aniline], which EC50 is on record?
Answer: Its EC50 is 0.001 to 0.999 nM.

Question: How did the EC50 turn out when `COC(=O)N[C@H](C(=O)N1CCC[C@H]1c1ncc(-c2ccc(-c3ccc(-c4cnc([C@]5(C)CCCN5C(=O)[C@@H](NC(=O)OC)C(C)C)[nH]4)cc3)cc2)[nH]1)C(C)C` [LS36, methyl ((1S)-1-(((2S)-2-(5-(4′-(2-((2S)-1-((2S)-2-((methoxycarbonyl)amino)-3-methylbutanoyl)-2-pyrrolidinyl)-1H-imidazol-5-yl)-4-biphenylyl)-1H-imidazol-2-yl)-2-methyl-1-pyrrolidinyl)carbonyl)-2-methylpropyl)carbamate] was run?
Answer: The EC50 was 0.001 to 0.999 nM.

Question: Which EC50 does the source give for `CCN(CC)[C@@H](C(=O)N1C[C@@H](F)C[C@H]1c1ncc(-c2ccc(-c3ccc(-c4cnc([C@@H]5C[C@H](F)CN5C(=O)[C@H](C)NC(=O)OC)[nH]4)cc3)cc2)[nH]1)c1ccccc1` [JG-14, methyl ((1S)-2-((2S,4S)-2-(5-(4′-(2-((2S,4S)-1-((2R)-2-(diethylamino)-2-phenylacetyl)-4-fluoro-2-pyrrolidinyl)-1H-imidazol-5-yl)-4-biphenylyl)-1H-imidazol-2-yl)-4-fluoro-1-pyrrolidinyl)-1-methyl-2-oxoethyl)carbamate] here?
Answer: Its EC50 is 0.001 to 0.999 nM.

Question: For `COC(=O)N[C@H](C(=O)N1CCC[C@H]1c1ncc(-c2ccc(-c3ccc(-c4cnc([C@@H]5CCCN5C(=O)[C@@H](Nc5ccncn5)C(C)C)[nH]4)cc3)cc2)[nH]1)C(C)C` [cj-15d, methyl ((1S)-2-methyl-1-(((2S)-2-(5-(4′-(2-((2S)-1-(N-4-pyrimidinyl-L-valyl)-2-pyrrolidinyl)-1H-imidazol-5-yl)-4-biphenylyl)-1H-imidazol-2-yl)-1-pyrrolidinyl)carbonyl)propyl)carbamate], which EC50 is on record?
Answer: The EC50 was 0.001 to 0.999 nM.

Question: With `CCN(CC)[C@@H](C(=O)N1CCC[C@H]1c1ncc(-c2ccc(-c3ccc(-c4cnc([C@@H]5CCCN5C(=O)[C@H](Cc5ccc(OCc6ccccc6)cc5)NC(=O)OC)[nH]4)cc3)cc2)[nH]1)c1ccccc1` [cj-106, methyl ((1S)-1-(4-(benzyloxy)benzyl)-2-((2S)-2-(5-(4′-(2-((2S)-1-((2R)-2-(diethylamino)-2-phenylacetyl)-2-pyrrolidinyl)-1H-imidazol-5-yl)-4-biphenylyl)-1H-imidazol-2-yl)-1-pyrrolidinyl)-2-oxoethyl)carbamate] as the molecule, how does the EC50 read?
Answer: Its EC50 is 0.001 to 0.999 nM.

Question: For `O=C([C@@H](c1ccccc1)N1CCCCC1)N1CCC[C@H]1c1ncc(-c2ccc(-c3ncc(-c4cnc([C@@H]5CCCN5C(=O)[C@@H](c5ccccc5)N5CCCCC5)[nH]4)cn3)cc2)[nH]1` [Example 152j-5, 5-(2-((2S)-1-((2R)-2-phenyl-2-(1-piperidinyl)acetyl)-2-pyrrolidinyl)-1H-imidazol-5-yl)-2-(4-(2-((2S)-1-((2R)-2-phenyl-2-(1-piperidinyl)acetyl)-2-pyrrolidinyl)-1H-imidazol-4-yl)phenyl)pyrimidine], which EC50 is on record?
Answer: The EC50 was 0.001 to 0.999 nM.

Question: For `CN(C)[C@@H](C(=O)N1CCC[C@H]1c1ncc(-c2ccc(-c3ccc(-c4cnc([C@@H]5CCCN5C(=O)C5CN(C(=O)OC(C)(C)C)C5)[nH]4)cc3)cc2)[nH]1)c1ccccc1` [Example 94-25, tert-butyl 3-(((2S)-2-(5-(4′-(2-((2S)-1-((2R)-2-(dimethylamino)-2-phenylacetyl)-2-pyrrolidinyl)-1H-imidazol-5-yl)-4-biphenylyl)-1H-imidazol-2-yl)-1-pyrrolidinyl)carbonyl)-1-azetidinecarboxylate], which EC50 is on record?
Answer: Its EC50 is 0.001 to 0.999 nM.

Question: Which EC50 does the source give for `COC(=O)NC(C)(C)C(=O)N1[C@@H](C)CC[C@H]1c1nc(-c2ccc(-c3ccc(-c4c[nH]c([C@@H]5CC[C@H](C)N5C(=O)C(C)(C)NC(=O)OC)n4)cc3)cc2)c[nH]1` [Example M156, methyl (2-((2S,5S)-2-(4-(4′-(2-((2S,5S)-1-(2-((methoxycarbonyl)amino)-2-methylpropanoyl)-5-methyl-2-pyrrolidinyl)-1H-imidazol-4-yl)-4-biphenylyl)-1H-imidazol-2-yl)-5-methyl-1-pyrrolidinyl)-1,1-dimethyl-2-oxoethyl)carbamate] here?
Answer: The EC50 was 1 to 99 nM.

Question: `COC(=O)N[C@@H](C(=O)N1CCC[C@H]1c1ncc(-c2ccc(-c3ccc(-c4cnc([C@@H]5CCCN5C(=O)[C@@H](C)O)[nH]4)cc3)cc2)[nH]1)c1ccccc1` [Example 35, methyl ((1R)-2-((2S)-2-(5-(4′-(2-((2S)-1-((2R)-2-hydroxypropanoyl)-2-pyrrolidinyl)-1H-imidazol-5-yl)-4-biphenylyl)-1H-imidazol-2-yl)-1-pyrrolidinyl)-2-oxo-1-phenylethyl)carbamate] was tested. Which EC50 did it give?
Answer: The EC50 was 0.001 to 0.999 nM.

Question: For `COC(=O)N[C@@H](Cc1cccnc1)C(=O)N1CCC[C@H]1c1ncc(-c2ccc(-c3ccc(-c4cnc([C@@H]5CCCN5C(=O)[C@@H](NC(=O)OC)C(C)C)[nH]4)cc3)cc2)[nH]1` [cj-83, methyl ((1S)-2-((2S)-2-(5-(4′-(2-((2S)-1-((2S)-2-((methoxycarbonyl)amino)-3-methylbutanoyl)-2-pyrrolidinyl)-1H-imidazol-5-yl)-4-biphenylyl)-1H-imidazol-2-yl)-1-pyrrolidinyl)-2-oxo-1-(3-pyridinylmethyl)ethyl)carbamate], which EC50 is on record?
Answer: Its EC50 is 0.001 to 0.999 nM.

Question: How did the EC50 turn out when `CCN(CC)[C@@H](C(=O)N1CCC[C@H]1c1ncc(-c2ccc(-c3ccc(-c4cnc([C@@H]5CCCN5C(=O)[C@@H](c5ccccc5)N(CC)CC)[nH]4)c(F)c3)cc2)[nH]1)c1ccccc1` [Example D47, (1R,1′R)-2,2′-((3-fluoro-4,4′-biphenyldiyl)bis(1H-imidazole-5,2-diyl(2S)-2,1-pyrrolidinediyl))bis (N,N-diethyl-2-oxo-1-phenylethanamine)] was run?
Answer: The EC50 was 0.001 to 0.999 nM.

Question: Which EC50 does the source give for `CCN(CC)[C@H](C)C(=O)N1CCC[C@H]1c1ncc(-c2ccc(-c3ccc(-c4cnc([C@@H]5CCCN5C(=O)[C@@H](C)N(CC)CC)[nH]4)cc3)cc2)[nH]1` [Example M9, (2R,2′R)-1,1′-(4,4′-biphenyldiylbis(1H-imidazole-5,2-diyl(2S)-2,1-pyrrolidinediyl))bis(N,N-diethyl-1-oxo-2-propanamine)] here?
Answer: Its EC50 is 100 to 999 nM.

Question: How did the EC50 turn out when `CCN(CC)[C@H](C)C(=O)N1CCC[C@H]1c1ncc(-c2ccc(-c3ccc(-c4cnc([C@@H]5CCCN5C(=O)[C@H](NC(=O)OC)c5ccccc5)[nH]4)cc3)cc2)[nH]1` [Example M63, methyl ((1R)-2-((2S)-2-(5-(4′-(2-((2S)-1-(N,N-diethyl-D-alanyl)-2-pyrrolidinyl)-1H-imidazol-5-yl)-4-biphenylyl)-1H-imidazol-2-yl)-1-pyrrolidinyl)-2-oxo-1-phenylethyl)carbamate] was run?
Answer: The EC50 was 1 to 99 nM.

Question: Which EC50 does the source give for `COC(=O)N[C@@H](C(=O)N1CCC[C@H]1c1ncc(-c2ccc(-c3ccc(-c4cnc([C@@H]5CCCN5C(=O)[C@@](OC)(c5ccccc5)C(F)(F)F)[nH]4)cc3)cc2)[nH]1)c1ccccc1` [Example 84-81, methyl ((1R)-2-oxo-1-phenyl-2-((2S)-2-(5-(4′-(2-((2S)-1-((2S)-3,3,3-trifluoro-2-methoxy-2-phenylpropanoyl)-2-pyrrolidinyl)-1H-imidazol-5-yl)-4-biphenylyl)-1H-imidazol-2-yl)-1-pyrrolidinyl)ethyl)carbamate] here?
Answer: Its EC50 is 0.001 to 0.999 nM.

Question: Which EC50 does the source give for `CCN(CC)[C@@H](C(=O)N1CCC[C@H]1c1ncc(-c2ccc(-c3cc(F)c(-c4cnc([C@@H]5CCCN5C(=O)[C@@H](c5ccccc5)N(CC)CC)[nH]4)cc3F)cc2)[nH]1)c1ccccc1` [Example D54, (1R1′R)-2,2′-((2,5-difluoro-4,4′-biphenyldiyl)bis(1H-imidazole-5,2-diyl(2S)-2,1-pyrrolidinediyl))bis (N,N-diethyl-2-oxo-1-phenylethanamine)] here?
Answer: The EC50 was 0.001 to 0.999 nM.

Question: `COC(=O)N[C@@H](C(=O)N1CCC[C@H]1c1ncc(-c2ccc(-c3ccc(-c4cnc([C@@H]5CCCN5C(=O)[C@@H](OC(C)=O)c5ccccc5)[nH]4)cc3)cc2)[nH]1)c1ccccc1` [Example 84-83, (1S)-2-((2S)-2-(5-(4′-(2-((2S)-1-((2R)-2-((methoxycarbonyl)amino)-2-phenylacetyl)-2-pyrrolidinyl)-1H-imidazol-5-yl)-4-biphenylyl)-1H-imidazol-2-yl)-1-pyrrolidinyl)-2-oxo-1-phenylethyl acetate] was tested. Which EC50 did it give?
Answer: Its EC50 is 0.001 to 0.999 nM.

Question: With `COC(=O)N[C@@H](C(=O)N1CCC[C@H]1c1ncc(-c2ccc(-c3ccc(-c4cnc([C@@H]5CCCN5C(=O)Cc5ccc(Cl)cc5)[nH]4)cc3)cc2)[nH]1)c1ccccc1` [Example 84-68, methyl ((1R)-2-((2S)-2-(5-(4′-(2-((2S)-1-((4-chlorophenyl)acetyl)-2-pyrrolidinyl)-1H-imidazol-5-yl)-4-biphenylyl)-1H-imidazol-2-yl)-1-pyrrolidinyl)-2-oxo-1-phenylethyl)carbamate] as the molecule, how does the EC50 read?
Answer: The EC50 was 1 to 99 nM.
